Experimental data as given in patent US10201610B2, “Interference peptides and use thereof” (The University of Western Australia, priority 2014, dated 2019).
Ends that are not written are not given here.

Columns and labels:
[1] = system: PBX family members (notably, PBX1); assay: Immunoprecipitation and western blotting of TFHDs from SUM149PT extracts; assay type: binding, human; conditions: versus control peptide
Excerpt: To investigate the binding partners of the iPeps in cancer cells, the inventors carried out affinity capture immunoprecipitation experiments using the biotinylated active iPep624 as bait, and the iPep624ΔHEX as negative control. They used total protein extracts from SUM149PT cells to capture endogenous proteins able to bind these peptides in vitro. Elutes were loaded in a 1D-SDS PAGE gel to visualize the enrichment of individual proteins. […] In addition, overexpression of EN1 cDNA into two different breast cell lines confirmed the interaction of the full length EN1 with the endogenous EPRS inside the cells (FIG. 6c). To ascertain whether some downstream well-known effectors of EPRS were also differentially regulated by the iPeps, we performed real time PCR to detect mRNA levels of COLA1, COLA2, S1004A and DDIT3 (CHOP). […] COLA1 and COLA2 encode collagen proteins highly enriched by the amino acid proline and S1004A is a protein involved in metastasis and fibrosis. […] In contrast, the amino acid stress factor DDIT3 is stimulated upon EPRS inhibition. […]
The iPep624 and iPep624ΔHEX were coupled to a C-terminal biotin and immobilized in streptavidin-coated beads. […] Detection was performed with ECL Detection System (GE Healthcare) and quantitated using Image J v1.46 (ImageJ, NCBI).

[2] = system: SUM149PT cells; assay: cells; assay type: cell-based, human
Excerpt: The EN1-iPeps and iPep controls were first tested in SUM149PT cells carrying high EN1 expression. Cells were first treated with a full-length 29-mer peptide (iPep624) comprising the N-terminal, less conserved amino acid sequences, the hexamotif, and the C-terminal tail. As a control, the inventors generated the iPep624ΔHEX in which the hexamotif was mutated from the wild type (wt) WPAWVY (SEQ ID NO: 13) to the GAAGAG (SEQ ID NO: 15) sequence. These mutations were expected to dramatically abolish the activity of the peptide. Both peptides were included in the culture medium of the basal cancer cells in increasing (0-100 μM) concentrations and incubated for 8 hours at 37° C. Treated cells were first analyzed using the Cell Titer Glo assay, which monitors metabolic viability. […] This calculated value of IC50 is in the range of concentrations observed with other peptides delivered with CPPs.
All peptides were synthetized at the UNC High-Throughput Peptide Synthesis and Array Facility at UNC. Taxol, Rotenone and Halofuginone (Sigma-Aldrich, St Louis, Mo.) were dissolved in DMSO. A total of […] or 1×10^3 breast cells for peptide and drug treatment respectively, were seeded in 96-well plates. Cells were exposed for 8 hours to the peptide and 48 to 72 hours for drug treatment. The cell viability after peptide/drug treatment was assayed with the Cell Titer Glo (CTG) assay (Promega, Madison, Wis., USA).

[3] = system: SUM149PT cells; assay: Hoechst staining of apoptotic nuclei in SUM149PT cells; assay type: cell-based, human; conditions: 8 hours, compared with non-treated or iPep624ΔHEX-treated cells
Excerpt: FIG. 3 Design of an EN1-specific interference peptide (EN1-iPep). (a) Molecular model of HOXA9 and PBX1 tertiary complex formation with the DNA (PDB: 1PUF). HOXA9 (hexapeptide “donor”) is shown in green; PBX (“partner”) in blue. The N-terminal peptide of HOXA9 (magenta) is essential to make contact with the DNA minor groove, as well as to stabilize the binding of HOXA9 with PBX1. The conserved tryptophan residue (W, arrow) is shown within the hexapeptide and it is responsible for anchoring the loop in PBX1. HD=Homeodomain. (b) A multiple alignment of the EN1-iPeps across species, with the consensus sequence of the iPep indicated below. […] Cells were treated for 8 hours and cell viability assessed by Cell Titer Glo assay (CTG). […] (e) Caspase 3 activity in SUM149PT cells measured after eight hours of iPep624 (SEQ ID NO: 5) or iPep624ΔHEX […]) treatment. […] Statistical significance was analyzed using the Student t-Test (*** p<0.001). […] Histogram represents the quantification of Hoechst positive cells per field of view at 40× magnification. […] Cell viability was assessed by Cell Titer Glo (CTG) assay and percentage of survival (%) was normalized to the control treated cells. […]
The EN1-iPeps and iPep controls were first tested in SUM149PT cells carrying high EN1 expression. […] Treated cells were first analyzed using the Cell Titer Glo assay, which monitors metabolic viability. […]

KKKRKVTDSQQPLVWPAWVYCTRYSDRPS [iPep624]
interaction with PBX family members (notably, PBX1) [1]: specific interactions | IC50 ([2]; 8 h): 17.5 µM | cell viability ([2]; SUM149PT, 0-100 μM peptide, 8 hours): decreased cell viability | sensitization to halofuginone ([2]; SUM149PT, co-treatment with 500 nM iPep): sensitized even more the basal-like breast cancer cells to halofuginone | breast cancer cell death ([2]; SUM149PT, single agent): induced very potent breast cancer cell death | number of apoptotic nuclei [3]: significantly higher
